Literature values, collected in patent US20070020197A1, “Preparation of pharmaceutical compositions containing nanoparticles” (WARNER-LAMBERT COMPANY LLC, priority 2004, published 2007).

Conditions: mean particle size reduced from 4.15 μm to 0.45 μm

- bioavailability change: doubling
Structure (SMILES): O=C(NC(=O)c1ccccc1[N+](=O)[O-])Nc1ccc(Oc2ncc(Br)cn2)c(Cl)c1 [HO-221]
